Reference: US9040545B2, “Heterocyclyl pyrazolopyrimidine analogues as selective JAK inhibitors” (Cellzome Limited, priority 2010, dated 2015)

Key:
JAK2 = molecular target: T1, JAK2 (Homo sapiens, UniProt O60674); test: Kinobeads assay, JAK2; format: binding; conditions: mixed Molt4/Ramos lysate, read-out: Inhibition values (IC50) JAK2
T1 construct: endogenous in cells; host or cells: mixed Molt4/Ramos lysate (1:2)
Procedure, shortened: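 Competition binding in mixed Molt4/Ramos cell lysate (1:2, 10 mg/mL protein) with Kinobeads carrying immobilized aminopyrido-pyrimidine ligand, 3 h in cold room; 9-step 1:3 compound dilution series from 5 mM DMSO stock. Bead-bound JAK2/JAK3 eluted and quantified by antibody dot blot with infrared detection; IC50 from dose-response curves.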

Aurora B = molecular target: T2, Aurora B (Homo sapiens, UniProt Q96GD4); test: Kinobeads assay, Aurora B; format: binding; conditions: for IC50: lysate of pervanadate-treated Jurkat cells, read-out: Inhibition values (IC50) Aur B
T2 construct: cell lysates from Jurkat cells (ATCC TIB-152) used; endogenous in cells; host or cells: Jurkat cells (ATCC TIB-152), treated with pervanadate
T2 sequence (Q96GD4 whole entry): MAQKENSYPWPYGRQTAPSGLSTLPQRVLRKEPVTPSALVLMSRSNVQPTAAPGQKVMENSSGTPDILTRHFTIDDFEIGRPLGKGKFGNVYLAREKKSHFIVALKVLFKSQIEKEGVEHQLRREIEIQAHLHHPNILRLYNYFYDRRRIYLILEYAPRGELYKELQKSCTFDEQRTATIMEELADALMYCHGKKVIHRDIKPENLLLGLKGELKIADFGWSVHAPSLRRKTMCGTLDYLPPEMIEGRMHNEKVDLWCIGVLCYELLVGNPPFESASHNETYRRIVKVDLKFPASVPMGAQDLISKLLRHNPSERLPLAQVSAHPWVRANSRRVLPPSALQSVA

T1 sequence (O60674 whole entry): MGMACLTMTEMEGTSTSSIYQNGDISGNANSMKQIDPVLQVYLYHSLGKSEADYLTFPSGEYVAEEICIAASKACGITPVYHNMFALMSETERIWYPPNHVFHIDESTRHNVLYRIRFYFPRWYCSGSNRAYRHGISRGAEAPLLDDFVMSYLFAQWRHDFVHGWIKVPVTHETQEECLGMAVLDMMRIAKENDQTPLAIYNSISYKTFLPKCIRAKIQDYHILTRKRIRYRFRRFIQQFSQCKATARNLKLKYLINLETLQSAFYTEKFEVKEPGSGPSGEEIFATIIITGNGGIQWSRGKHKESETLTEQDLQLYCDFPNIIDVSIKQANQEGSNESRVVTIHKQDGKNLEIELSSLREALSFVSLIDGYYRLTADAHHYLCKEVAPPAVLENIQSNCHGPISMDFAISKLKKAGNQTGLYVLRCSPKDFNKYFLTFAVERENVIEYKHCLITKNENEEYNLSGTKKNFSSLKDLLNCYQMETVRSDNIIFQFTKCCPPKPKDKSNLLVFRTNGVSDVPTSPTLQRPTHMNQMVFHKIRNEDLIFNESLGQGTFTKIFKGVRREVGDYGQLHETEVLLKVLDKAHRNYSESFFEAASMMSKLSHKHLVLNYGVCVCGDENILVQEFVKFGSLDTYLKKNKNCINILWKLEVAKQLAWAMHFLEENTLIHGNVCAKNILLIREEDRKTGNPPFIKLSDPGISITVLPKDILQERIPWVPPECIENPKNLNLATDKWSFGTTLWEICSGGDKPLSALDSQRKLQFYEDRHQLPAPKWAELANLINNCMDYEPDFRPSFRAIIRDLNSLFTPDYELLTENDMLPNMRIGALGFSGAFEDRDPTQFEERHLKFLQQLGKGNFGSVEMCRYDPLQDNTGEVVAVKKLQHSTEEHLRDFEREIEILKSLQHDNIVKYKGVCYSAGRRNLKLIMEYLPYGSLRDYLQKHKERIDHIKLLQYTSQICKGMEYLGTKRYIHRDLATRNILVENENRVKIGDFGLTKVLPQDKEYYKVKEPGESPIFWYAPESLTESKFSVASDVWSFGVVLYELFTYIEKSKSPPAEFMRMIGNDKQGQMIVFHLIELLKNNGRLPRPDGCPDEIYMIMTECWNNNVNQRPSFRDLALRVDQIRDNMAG

| SMILES | IC50 (JAK2) [nM] | JAK3/AurB Fold Selectivity (Aurora B) | IC50 (Aurora B) [nM] |
| --- | --- | --- | --- |
| C[C@@H]1COCCN1c1cccc(Cn2ncc3cnc(Nc4cnn(C)c4)nc32)c1 [Example 113, (R)-N-(1-methyl-1H-pyrazol-4-yl)-1-(3-(3-methylmorpholino)benzyl)-1H-pyrazolo[3,4-d]pyrimidin-6-amine] | ≥ 10000 | >50 Fold | 1000 to 10000 |
| CNC(=O)CCn1cc(Nc2ncc3cnn(Cc4cccc(N5CCOCC5)c4)c3n2)cn1 [Example 24, N-Methyl-3-(4-((1-(3-morpholinobenzyl)-1H-pyrazolo[3,4-d]pyrimidin-6-yl)amino)-1H-pyrazol-1-yl)propanamide] | ≥ 10000 | >50 Fold | 1000 to 10000 |
| CCOC(=O)C1CCCN(c2cccc(Cn3ncc4cnc(Nc5cnn(C)c5)nc43)c2)C1 (stereo not drawn) [Example 13, Ethyl 1-(3-((6-((1-methyl-1H-pyrazol-4-yl)amino)-1H-pyrazolo[3,4-d]pyrimidin-1-yl)methyl)phenyl)piperidine-3-carboxylate] | ≥ 10000 | 10-50 Fold | ≥ 10000 |
| Cn1cc(Nc2ncc3cnn(Cc4c(F)ccc(N5CCOCC5)c4F)c3n2)cn1 [Example 38, 1-(2,6-Difluoro-3-morpholinobenzyl)-N-(1-methyl-1H-pyrazol-4-yl)-1H-pyrazolo[3,4-d]pyrimidin-6-amine] | ≥ 10000 | 10-50 Fold | 100 to 1000 |
| CNCC1(Cn2cc(Nc3ncc4cnn(Cc5cccc(N6CCOCC6)c5)c4n3)cn2)COC1 [Example 41, N-(1-((3-((Methylamino)methyl)oxetan-3-yl)methyl)-1H-pyrazol-4-yl)-1-(3-morpholinobenzyl)-1H-pyrazolo[3,4-d]pyrimidin-6-amine] | ≥ 10000 | 10-50 Fold | 1000 to 10000 |
| Cn1cc(Nc2ncc3cnn(Cc4cccc(N5CCC(F)(F)CC5)c4)c3n2)cn1 [Example 19, 1-(3-(4,4-Difluoropiperidin-1-yl)benzyl)-N-(1-methyl-1H-pyrazol-4-yl)-1H-pyrazolo[3,4-d]pyrimidin-6-amine] | ≥ 10000 | 10-50 Fold | ≥ 10000 |
| Cn1cc(Nc2ncc3cnn(Cc4cccc(N5CCN(S(C)(=O)=O)CC5)c4)c3n2)cn1 [Example 100, N-(1-methyl-1H-pyrazol-4-yl)-1-(3-(4-(methylsulfonyl)piperazin-1-yl)benzyl)-1H-pyrazolo[3,4-d]pyrimidin-6-amine] | ≥ 10000 | 10-50 Fold | 1000 to 10000 |
| Cn1cc(Nc2ncc3cnn(Cc4cc(N5CCOCC5)ccc4F)c3n2)cn1 [Example 15, 1-(2-Fluoro-5-morpholinobenzyl)-N-(1-methyl-1H-pyrazol-4-yl)-1H-pyrazolo[3,4-d]pyrimidin-6-amine] | ≥ 10000 | 10-50 Fold | 1000 to 10000 |
| Cn1cc(Nc2ncc3cnn(Cc4cc(-c5cnn(C)c5)cc(F)c4F)c3n2)cn1 [Example 126, 1-(2,3-difluoro-5-(1-methyl-1H-pyrazol-4-yl)benzyl)-N-(1-methyl-1H-pyrazol-4-yl)-1H-pyrazolo[3,4-d]pyrimidin-6-amine] | ≥ 10000 | >50 Fold | ≥ 10000 |
| Cn1cc(Nc2ncc3cnn(Cc4cccc(N5CCCCC5)c4)c3n2)cn1 [Example 8, N-(1-Methyl-1H-pyrazol-4-yl)-1-(3-(piperidin-1-yl)benzyl)-1H-pyrazolo[3,4-d]pyrimidin-6-amine] | ≥ 10000 | 10-50 Fold | 1000 to 10000 |
| Cn1cc(Nc2ncc3cnn(Cc4cccc(N5CC6CCC(C5)O6)c4)c3n2)cn1 [Example 26] | ≥ 10000 | 10-50 Fold | 1000 to 10000 |
| CC(C)n1cc(-c2cccc(Cn3ncc4cnc(Nc5cnn(C)c5)nc43)c2)cn1 [Example 117, 1-(3-(1-isopropyl-1H-pyrazol-4-yl)benzyl)-N-(1-methyl-1H-pyrazol-4-yl)-1H-pyrazolo[3,4-d]pyrimidin-6-amine] | ≥ 10000 | >50 Fold | ≥ 10000 |
| CCCn1cc(-c2cccc(Cn3ncc4cnc(Nc5cnn(C)c5)nc43)c2)cn1 [Example 119, N-(1-methyl-1H-pyrazol-4-yl)-1-(3-(1-propyl-1H-pyrazol-4-yl)benzyl)-1H-pyrazolo[3,4-d]pyrimidin-6-amine] | ≥ 10000 | >50 Fold | 1000 to 10000 |
| Cc1c(Cn2ncc3cnc(Nc4cnn(C)c4)nc32)cccc1N1CCOCC1 [Example 11, N-(1-Methyl-1H-pyrazol-4-yl)-1-(2-methyl-3-morpholinobenzyl)-1H-pyrazolo[3,4-d]pyrimidin-6-amine] | ≥ 10000 | 10-50 Fold | 100 to 1000 |
| OCCCn1cc(Nc2ncc3cnn(Cc4cccc(N5CCOCC5)c4)c3n2)cn1 [Example 18, 3-(4-((1-(3-Morpholinobenzyl)-1H-pyrazolo[3,4-d]pyrimidin-6-yl)amino)-1H-pyrazol-1-yl)propan-1-ol] | ≥ 10000 | >50 Fold | 100 to 1000 |
| Cn1cc(Nc2ncc3cnn(Cc4cccc(N5CCNCC5=O)c4)c3n2)cn1 [Example 36, 1-(3-((6-((1-Methyl-1H-pyrazol-4-yl)amino)-1H-pyrazolo[3,4-d]pyrimidin-1-yl)methyl)phenyl)piperazin-2-one] | ≥ 10000 | 10-50 Fold | 1000 to 10000 |

Next, values leading:

| IC50 (JAK2) [nM] | JAK3/AurB Fold Selectivity (Aurora B) | IC50 (Aurora B) [nM] | SMILES |
| --- | --- | --- | --- |
| 1000 to 10000 | 10-50 Fold | 100 to 1000 | O=C1COCCN1c1cc(F)cc(Cn2ncc3cnc(Nc4cnn(CCS(=O)(=O)NC5CC5)c4)nc32)c1 [Example 106, N-cyclopropyl-2-(4-((1-(3-fluoro-5-(3-oxomorpholino)benzyl)-1H-pyrazolo[3,4-d]pyrimidin-6-yl)amino)-1H-pyrazol-1-yl)ethanesulfonamide] |
| 1000 to 10000 | 10-50 Fold | 1000 to 10000 | Cn1cc(Nc2ncc3cnn(Cc4cccc(-c5cnn(CCO)c5)c4)c3n2)cn1 [Example 121, 2-(4-(3-((6-((1-methyl-1H-pyrazol-4-yl)amino)-1H-pyrazolo[3,4-d]pyrimidin-1-yl)methyl)phenyl)-1H-pyrazol-1-yl)ethanol] |
| 1000 to 10000 | 10-50 Fold | 100 to 1000 | Cn1cc(-c2cc(F)c(F)c(Cn3ncc4cnc(Nc5cnn(CCO)c5)nc43)c2)cn1 [Example 127, 2-(4-((1-(2,3-difluoro-5-(1-methyl-1H-pyrazol-4-yl)benzyl)-1H-pyrazolo[3,4-d]pyrimidin-6-yl)amino)-1H-pyrazol-1-yl)ethanol] |
| 100 to 1000 | 3-10 Fold | 100 to 1000 | Cn1cc(Nc2ncc3cnn(Cc4c(F)c(F)cc(C(=O)N5CCOCC5)c4F)c3n2)cn1 [Example 110, morpholino(2,4,5-trifluoro-3-((6-((1-methyl-1H-pyrazol-4-yl)amino)-1H-pyrazolo[3,4-d]pyrimidin-1-yl)methyl)phenyl)methanone] |
| 1000 to 10000 | >50 Fold | 1000 to 10000 | CN(C)CC(F)Cn1cc(Nc2ncc3cnn(Cc4cc(F)cc(N5CCOCC5=O)c4)c3n2)cn1 (stereo not drawn) [Example 97, 4-(3-((6-((1-(3-(dimethylamino)-2-fluoropropyl)-1H-pyrazol-4-yl)amino)-1H-pyrazolo[3,4-d]pyrimidin-1-yl)methyl)-5-fluorophenyl)morpholin-3-one] |
| 1000 to 10000 | 3-10 Fold | < 100 | Cn1cc(Nc2ncc3cnn(Cc4cc(C(=O)N5CCOCC5)cc(F)c4F)c3n2)cn1 [Example 98, (3,4-difluoro-5-((6-((1-methyl-1H-pyrazol-4-yl)amino)-1H-pyrazolo[3,4-d]pyrimidin-1-yl)methyl)phenyl)(morpholino)methanone] |
| 1000 to 10000 | 10-50 Fold | 100 to 1000 | CN(C)C(=O)CCn1cc(Nc2ncc3cnn(Cc4cccc(N5CCOCC5)c4)c3n2)cn1 [Example 16, N,N-Dimethyl-3-(4-((1-(3-morpholinobenzyl)-1H-pyrazolo[3,4-d]pyrimidin-6-yl)amino)-1H-pyrazol-1-yl)propanamide] |
| 1000 to 10000 | 3-10 Fold | 100 to 1000 | Cn1cc(Nc2ncc3cnn(Cc4cccc(N5CCOCC5)c4Cl)c3n2)cn1 [Example 103, 1-(2-chloro-3-morpholinobenzyl)-N-(1-methyl-1H-pyrazol-4-yl)-1H-pyrazolo[3,4-d]pyrimidin-6-amine] |
| 1000 to 10000 | 10-50 Fold | 100 to 1000 | Cn1cc(Nc2ncc3cnn(Cc4cccc(NC5COC5)c4)c3n2)cn1 [Example 114, N-(1-methyl-1H-pyrazol-4-yl)-1-(3-(oxetan-3-ylamino)benzyl)-1H-pyrazolo[3,4-d]pyrimidin-6-amine] |
| 1000 to 10000 | 3-10 Fold | < 100 | CNCCCn1cc(Nc2ncc3cnn(Cc4cc(F)cc(N5CCOCC5=O)c4)c3n2)cn1 [Example 99, 4-(3-fluoro-5-((6-((1-(3-(methylamino)propyl)-1H-pyrazol-4-yl)amino)-1H-pyrazolo[3,4-d]pyrimidin-1-yl)methyl)phenyl)morpholin-3-one] |
| 100 to 1000 | 10-50 Fold | 100 to 1000 | Cn1cc(Nc2ncc3cnn(Cc4cc(F)cc(N5CCNCC5)c4F)c3n2)cn1 [Example 95, 1-(2,5-difluoro-3-(piperazin-1-yl)benzyl)-N-(1-methyl-1H-pyrazol-4-yl)-1H-pyrazolo[3,4-d]pyrimidin-6-amine] |
